Assay results: ChEMBL document CHEMBL1153812, “Hydrolytic cleavage of DNA by urea-bridged macrocyclic polyamines” (Eur J Med Chem, 2009)
Activity calls are given as the source filed them. No cut-off for these calls is given here.

How the values were obtained:
Type in all cases: nucleic-acid assay
[1] = tested on: Nucleic Acid; experiment: Induction of supercoiled Escherichia coli pUC19 DNA cleavage assessed as formation of open-circular DNA at 286 uM after 36 hrs by agarose gel electrophoresis
[2] = tested on: Nucleic Acid; experiment: Induction of supercoiled Escherichia coli pUC19 DNA cleavage assessed as formation of open-circular DNA at 0.285 mM after 36 hrs by TBARS method in presence of hydroxy radical
[3] = tested on: Nucleic Acid; experiment: Induction of supercoiled Escherichia coli pUC19 DNA cleavage assessed as formation of open-circular DNA at 357 uM after 32 hrs by agarose gel electrophoresis
[4] = tested on: Nucleic Acid; experiment: Induction of supercoiled Escherichia coli pUC19 DNA cleavage assessed as formation of open-circular DNA at 357 uM after 36 hrs by agarose gel electrophoresis in presence of singlet oxygen scavenger NaN3
[5] = tested on: Nucleic Acid; experiment: Induction of supercoiled Escherichia coli pUC19 DNA cleavage assessed as formation of open-circular DNA at 357 uM after 36 hrs by agarose gel electrophoresis in presence of hydroxyl radical scavenger t-BuOH
[6] = tested on: Nucleic Acid; experiment: Induction of supercoiled Escherichia coli pUC19 DNA cleavage assessed as formation of open-circular DNA at 357 uM after 36 hrs by agarose gel electrophoresis in presence of […]
[7] = tested on: Nucleic Acid; experiment: Induction of supercoiled Escherichia coli pUC19 DNA cleavage assessed as formation of open-circular DNA at 357 uM after 36 hrs by agarose gel electrophoresis in presence of hydroxyl radical scavenger DMSO
[8] = tested on: Nucleic Acid; experiment: Induction of supercoiled Escherichia coli pUC19 DNA cleavage assessed as formation of open-circular DNA at 71 uM after 36 hrs by agarose gel electrophoresis
[9] = tested on: Nucleic Acid; experiment: Induction of supercoiled Escherichia coli pUC19 DNA cleavage assessed as formation of open-circular DNA at 143 uM after 36 hrs by agarose gel electrophoresis
[10] = tested on: Nucleic Acid; experiment: Binding affinity to calf thymus duplex DNA assessed as change in viscosity of DNA at 20 mM by viscometric analysis; conditions: Bos taurus
[11] = tested on: Nucleic Acid; experiment: Induction of supercoiled Escherichia coli pUC19 DNA cleavage assessed as formation of open-circular DNA at 357 uM after 36 hrs by agarose gel electrophoresis
[12] = tested on: Nucleic Acid; experiment: Induction of supercoiled Escherichia coli pUC19 DNA cleavage assessed as formation of open-circular DNA at 286 uM by agarose gel electrophoresis; conditions: TDE = time-dependent effect
[13] = tested on: Nucleic Acid; experiment: Binding affinity to calf thymus duplex DNA assessed as thermal melting temperature at 0.11 mM by UV-visible spectrophotometry; conditions: Bos taurus
[14] = tested on: Nucleic Acid; experiment: Induction of supercoiled Escherichia coli pUC19 DNA cleavage assessed as formation of open-circular DNA at 214 uM after 36 hrs by agarose gel electrophoresis

Row | Activity [1] | Activity [2] | Activity [3] | Activity [4] | Activity [5] | Activity [6] | Activity [7] | Activity [8] | Activity [9] | Activity [10] | Activity [11] | Activity [12] | Tm [13] | Activity [14] | Structure (SMILES)
1 | 89% | Active | 97% | Active | Active | Active | Active | 29% | 59% | Active | 97% | tde | 75.7 °C | 72% | CC(NC(=O)NC(C)C(=O)N1CCNCCNCCNCC1)C(=O)N1CCNCCNCCNCC1 (stereo not given)
2 | – | – | – | – | – | – | – | – | – | Active | Active | – | 77.6 °C | – | CCNC(=O)NC(C)C(=O)N1CCNCCNCCNCC1 (stereo not given)
3 | – | – | – | – | – | – | – | – | – | Active | Active | – | 76.6 °C | – | COC(=O)C(C)NC(=O)NC(C)C(=O)OC (stereo not given)
